Data on five compounds can be found in US20240301156A1, “FOAMABLE RESIN COMPOSITION, FOAM BODY, METHOD FOR PRODUCING FOAM BODY, AND FOAMABLE CURING AGENT” (MITSUBISHI GAS CHEMICAL COMPANY, INC., priority 2021, published 2024).

Data set [1] in a line: Maximum carbon dioxide (CO2) release temperature of amine compound (DSC). It counts as physicochemical. As to conditions: amine left in air at 23° C., 50% RH for 24 hours; DSC 23 to 250° C., 10° C./minute, nitrogen. The protocol:
The amine compound (a1) with carbon dioxide absorbed is heated at a heating rate of 10° C./minute from 23° C. to 250° C., and the temperature at which the amount of heat absorbed due to desorption of carbon dioxide reaches the maximum is measured, and the temperature is defined as the maximum carbon dioxide release temperature. In this regard the amine compound (a1) with carbon dioxide absorbed may be prepared by leaving 5 mmol of the amine compound (a1) to stand in air at 23° C. and 50% RH for 24 hours.
A carbon dioxide detector and a Petri dish were placed in an openable desiccator (inner dimension: 370 mm×260 mm×272 mm). Subsequently the amine compound (5 mmol) was added to the Petri dish in the desiccator and the door was immediately closed to leave the amine compound to stand in the desiccator in an air environment at 23° C. and 50% RH for 24 hours. The initial concentration of carbon dioxide was adjusted to about 400 ppm.
(§1) Then the amine compound was removed from the desiccator to give an amine compound with carbon dioxide absorbed. The maximum carbon dioxide release temperature of the amine compound with carbon dioxide absorbed was measured by subjecting the amine compound to DSC as described below. First, differential scanning calorimetry of the amine compound was performed under conditions of a temperature range of 23 to 250° C., a heating rate of 10° C./minute and a nitrogen atmosphere using a differential thermogravimeter (product name DTG-60 made by Shimadzu Corporation). The temperature at which the amount of heat absorbed due to the desorption of carbon dioxide was the maximum was calculated from the DSC curve obtained, and the temperature was determined as the maximum carbon dioxide release temperature of the amine compound.

Data set [2] can be described thus: Maximum endothermic temperature of amine compound (DSC). It counts as physicochemical. As to conditions: DSC 23 to 350° C., 10° C./minute, nitrogen; evaporation of the amine compound. Here is the method: The amine compound (a1) is heated at a heating rate of 10° C./minute from 23° C. to 350° C. and the temperature at which the amount of heat absorbed due to evaporation of the amine compound (a1) reaches the maximum is measured, and the temperature is defined as the maximum endothermic temperature of the amine compound (a1).
as §1, with “The” for “Then the amine compound was removed from the desiccator to give an amine compound with carbon dioxide absorbed. The”, “endothermic” for “carbon dioxide release”, “compound” for “compound with carbon dioxide absorbed”, “350°” for “250°”, “evaporation” for “desorption”, “the amine compound” for “carbon dioxide”

Data set [3] can be described thus: Amine value of amine compound (JIS K7237-1995 titration). It counts as physicochemical. As to conditions: 0.1 N perchloric acid-acetic acid titration.
Procedure: The amine value was measured by the following measurement method according to JIS K7237-1995. • (1) 0.1 g of the amine compound was dissolved in 20 mL of acetic acid. • (2) The amine value was calculated by titrating the solution prepared in (1) above with 0.1 N perchloric acid-acetic acid solution using an automatic potentiometric titrator (AT-610 made by Kyoto Electronics Manufacturing Co., Ltd.) (Acid Dissociation Constant (pKa) of Amine Compound)
Data set [4] can be described thus: Absorption of carbon dioxide into amine compound: percentage increase of mass. It counts as physicochemical. As to conditions: amine left to stand in air at 23° C. and 50% RH for a week. The protocol: An amine compound, MXDA (40 mmol), was put in a container and left to stand in an air environment at 23° C. and 50% RH for a week. By doing so MXDA and carbon dioxide in the air were reacted to give a carbonate of MXDA. At that stage, to suppress uneven reaction, the container in which the amine compound was placed was shaken as necessary so as not to leave unreacted MXDA.
Next, increase of the mass of MXDA was measured and the percentage increase of the mass of the amine compound was calculated by the following equation.
Percentage increase of mass of amine compound [% by mass]=100×amount of increase of mass of amine compound (g)/(initial mass of amine compound (g)+amount of increase of mass of amine compound (g))

The nature of data set [5]: Acid dissociation constant (pKa) of amine compound, acid-base titration. To be noted: purified water.
Procedure: (§2) The acid dissociation constant of the amine compound (a1) is measured by the following measurement method based on acid-base titration. • (1) 0.2 g of the amine compound (a1) is dissolved in 30 mL of purified water. • (2) The acid dissociation constant (pKa) is calculated by titrating the solution prepared in (1) above with 0.1 N perchloric acid-acetic acid solution using an automatic potentiometric titrator (e.g., AT-610 made by Kyoto Electronics Manufacturing Co., Ltd.).
(§3) The acid dissociation constant of the amine compound was measured by the following measurement method. • (1) 0.2 g of the amine compound was dissolved in 30 mL of purified water. • (2) The acid dissociation constant (pKa) was calculated by titrating the solution prepared in (1) above with 0.1 N perchloric acid-acetic acid solution using an automatic potentiometric titrator (AT-610 made by Kyoto Electronics Manufacturing Co., Ltd.).
(§4) The temperature in the measurement was 25±2° C.

Procedure for physchem: as §2, §3, §4

Turning to `NCC1CCCC(CN)C1` (centres unmarked) [1,3-BAC, 1,3-bis(aminomethyl)cyclohexane], the “Maximum CO2 release temperature” value in data set [1] worked out at 125.7 °C. Besides, the Maximum endothermic temperature in data set [2] is 160.9 °C. The compound also displayed an Amine value in data set [3] of 789 mg KOH/g. Further, the “Percentage increase of mass” value in data set [4] worked out at 25.9 % by mass.

For the compound `NCCN1CCNCC1` [AEP, N-(2-aminoethyl)piperazine], in data set [1], the “Maximum CO2 release temperature” value turned out to be 81.9 °C. For the same compound, in data set [2], the Maximum endothermic temperature amounted to 140.2 °C. This compound also had an Amine value in data set [3] of 1303 mg KOH/g. In addition, the “Percentage increase of mass” value in data set [4] was 43.7 % by mass. The compound also had a pKa in data set [5] of 8.9.

On to `CC1(C)CC(N)CC(C)(CN)C1` (centres unmarked) [IPDA, isophoronediamine], for which the “Maximum CO2 release temperature” value in data set [1] was found to be 114.4 °C. In addition, in data set [2], the Maximum endothermic temperature worked out at 168.8 °C. In data set [3], this compound had an Amine value of 659 mg KOH/g. For the same compound, the “Percentage increase of mass” value in data set [4] is recorded as 23.5 % by mass. The compound further gave a pKa in data set [5] of 10.4.

As for `NCc1cccc(CN)c1` [MXDA, metaxylylenediamine], the “Maximum CO2 release temperature” value in data set [1] amounted to 135.5 °C. This compound displayed a Maximum endothermic temperature in data set [2] of 183.5 °C. Besides, in data set [3], the Amine value worked out at 824 mg KOH/g. The “Percentage increase of mass” value in data set [4] is on record as 24.1 % by mass.

Regarding `NC1CCC(CC2CCC(N)CC2)CC1` (centres unmarked) [PACM, 4,4′-methylenebis(cyclohexylamine)], the “Maximum CO2 release temperature” value in data set [1] came out at 53.0 °C. The compound further registered a Maximum endothermic temperature in data set [2] of 218.5 °C. Also, the Amine value in data set [3] came out at 533 mg KOH/g. In data set [4], the “Percentage increase of mass” value came to 12.2 % by mass. The compound also had a pKa in “physchem” of 10.3.
